This is an account of results in PubChem BioAssay (NCI).

Among the test systems are PC-3 prostate; SK-OV-3 ovarian; NCI-H23 lung; SK-MEL-2 melanoma; OVCAR-3 ovarian; NCI-H226 lung; SF-539 CNS; HOP-62 NSCLC; HOP-92 NSCLC; BT-549 breast.
What all share (test): inhibition of tumour cell growth, NCI panel, 48 h

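Five compound concentrations were applied to cells in 96-well plates for 48 hours; endpoints were derived by simple linear interpolation of the resulting dose-response curve. The concentration for 50% growth inhibition is given as GI50. TGI denotes the concentration required for complete inhibition of growth.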 Where a SMILES comes first, the peptide text is derived from it. The star is where a group is joined. Palmitoyl = CCCCCCCCCCCCCCCC(=O)* Bounds are passed on as bounds.

`O=C1C(=Nc2ccc(Nc3ccccc3)cc2)Oc2ccccc21`: the TGI with PC-3 prostate came to 8.58 µM; with SK-OV-3 ovarian, 23 µM; in the experiment on NCI-H23 lung, 3.93 µM; in the experiment on SK-MEL-2 melanoma it was 14.4 µM; in the experiment with OVCAR-3 ovarian, 4.42 µM; in the experiment with NCI-H226 lung, 16.8 µM. In addition, the results for the TGI with SF-539 CNS and in the experiment on HOP-62 NSCLC were 8.41 µM and 22 µM, respectively.

Regarding `CC(C)(C)N=C(N)NC#N`, the TGI in the experiment on PC-3 prostate, with HOP-92 NSCLC, in the experiment on SK-OV-3 ovarian, in the experiment with NCI-H23 lung, in the experiment with SK-MEL-2 melanoma and with SF-539 CNS was over 100 µM throughout. Further, the TGI with BT-549 breast and in the experiment on HOP-62 NSCLC was over 100 µM throughout.

For `CCOC(=O)CNC(=O)NC12CC3CC(CC(C3)C1)C2`, the TGI is 216 µM in the experiment with HOP-92 NSCLC; over 517 µM in the experiment with SK-OV-3 ovarian; over 515 µM with NCI-H23 lung; 372 µM in the experiment on SK-MEL-2 melanoma; 398 µM with OVCAR-3 ovarian; over 473 µM in the experiment with NCI-H226 lung. The figures for the TGI in the experiment with SF-539 CNS and in the experiment on HOP-62 NSCLC were over 550 µM and over 502 µM, respectively.

In the case of `CN(C)CCNC(=O)Cc1ccccc1Nc1c(Cl)cccc1Cl`, the TGI in the experiment on SK-OV-3 ovarian was determined as 33.4 µM; in the experiment with NCI-H23 lung it was 33.4 µM; with OVCAR-3 ovarian, 36.1 µM; in the experiment with NCI-H226 lung, 34.3 µM; in the experiment on SF-539 CNS, 31.5 µM; with HOP-62 NSCLC it was 28.5 µM.

For the compound `CCCN(CCC)c1c([N+](=O)[O-])cc(C(=O)N(CC)CC)cc1[N+](=O)[O-]`, the TGI with SK-OV-3 ovarian turned out to be 96 µM; in the experiment on NCI-H23 lung, 40.8 µM; in the experiment with SK-MEL-2 melanoma, 43.5 µM; in the experiment with OVCAR-3 ovarian, 33.3 µM; with NCI-H226 lung, 71.3 µM; in the experiment with SF-539 CNS it was 58.3 µM. The TGI in the experiment on HOP-62 NSCLC was over 100 µM.

For `COc1cc(C2c3cc4c(cc3[C@@H](Nc3ccccc3)C3COC(=O)[C@H]23)OCO4)cc(OC)c1O` (stereo not given in full), the TGI came to 11.7 µM with HOP-92 NSCLC; 4.87 µM in the experiment with SK-OV-3 ovarian; 3.01 µM with NCI-H23 lung; 6.97 µM in the experiment on SK-MEL-2 melanoma; 7.34 µM in the experiment on OVCAR-3 ovarian; 2.12 µM in the experiment with NCI-H226 lung. In addition, the TGI was 1.8 µM with SF-539 CNS and 0.671 µM with HOP-62 NSCLC.

On to `COc1cc(O)c2c(=O)c(OC)c(-c3ccc(OC)c(O)c3)oc2c1`, for which the TGI with PC-3 prostate, with SK-OV-3 ovarian, in the experiment on NCI-H23 lung, in the experiment with SK-MEL-2 melanoma, in the experiment on OVCAR-3 ovarian and in the experiment on NCI-H226 lung was over 100 µM throughout. Besides, the TGI in the experiment on SF-539 CNS, with BT-549 breast and in the experiment on HOP-62 NSCLC was over 100 µM each time.

Consider `COc1cc(C=O)ccc1O`, for which the TGI in the experiment on PC-3 prostate, in the experiment with HOP-92 NSCLC, with NCI-H23 lung, with OVCAR-3 ovarian, in the experiment with NCI-H226 lung and in the experiment with SF-539 CNS was over 100 µM in each case. The compound further had a TGI in the experiment on HOP-62 NSCLC of over 100 µM.

Take `CC(C)(C)c1ccc2c(c1)C#Cc1cc3c(cc1OCCCO2)C#Cc1cc(C(C)(C)C)ccc1OCCCO3`: the TGI in the experiment with PC-3 prostate is over 100 µM; in the experiment with HOP-92 NSCLC, over 100 µM; in the experiment with SK-OV-3 ovarian, over 100 µM; with NCI-H23 lung, 4.54 µM; in the experiment with SK-MEL-2 melanoma, over 100 µM; in the experiment with OVCAR-3 ovarian it was over 100 µM. Also, the TGI with SF-539 CNS is over 100 µM; in the experiment on BT-549 breast, 3.39 µM; in the experiment with HOP-62 NSCLC, over 100 µM.

For `CCCCCCCCCCCCCCCC(=O)N1CCCC1C(=O)NCC(=O)NC(Cc1ccccc1)C(=O)N1CCCC1C(=O)NC(CO)C(=O)NC(Cc1ccc(O)cc1)C(=O)NC(CCCCN)C(=O)NC(CC(C)C)C(=O)NC(CCCN=C(N)N)C(=O)N1CCCC1C(=O)NCC(N)=O` (stereo not given) (Palmitoyl-PGFPSYKLRPG-NH2; configuration not given here), the GI50 is 18.7 µM in the experiment with HOP-92 NSCLC; 23.2 µM with SK-OV-3 ovarian; 18.7 µM in the experiment with NCI-H23 lung; 46.2 µM with SK-MEL-2 melanoma; 33.3 µM with OVCAR-3 ovarian; 23.5 µM in the experiment on NCI-H226 lung. The GI50 with SF-539 CNS is 20.5 µM; in the experiment with BT-549 breast it was 20.8 µM; in the experiment on HOP-62 NSCLC it was 22.9 µM. In addition, the TGI with HOP-92 NSCLC is 38.9 µM; in the experiment on SK-OV-3 ovarian, 48.1 µM; with NCI-H23 lung, 36.6 µM; in the experiment with SK-MEL-2 melanoma, over 100 µM; in the experiment on OVCAR-3 ovarian, over 100 µM; in the experiment with NCI-H226 lung, 44.4 µM. The TGI amounted to 47.9 µM in the experiment on SF-539 CNS, 43.2 µM in the experiment with BT-549 breast and 48 µM in the experiment with HOP-62 NSCLC.

Take `CNc1[nH]c(=S)nc2sc3c(c12)CCCC3`: the TGI with PC-3 prostate, with NCI-H23 lung, with SK-MEL-2 melanoma, in the experiment on OVCAR-3 ovarian, with NCI-H226 lung and with BT-549 breast was over 75 µM throughout. The TGI with HOP-62 NSCLC is over 75 µM.

With `Nc1ncc2c(n1)-c1ccccc1OC2N1CCCC1` (stereo not given), the TGI with PC-3 prostate, with HOP-92 NSCLC, with SK-OV-3 ovarian, in the experiment on NCI-H23 lung, in the experiment with SK-MEL-2 melanoma and in the experiment with OVCAR-3 ovarian was over 100 µM in each case. The TGI in the experiment on NCI-H226 lung, in the experiment on SF-539 CNS and in the experiment on HOP-62 NSCLC was over 100 µM throughout.

Consider `CN1Cc2c(nc(-c3ccccc3)c[n+]2[O-])N(C)C1`, for which the TGI in the experiment with HOP-92 NSCLC, in the experiment with SK-OV-3 ovarian, with NCI-H23 lung, in the experiment on SK-MEL-2 melanoma, in the experiment on OVCAR-3 ovarian and in the experiment with NCI-H226 lung was over 100 µM each time. In addition, the TGI in the experiment on SF-539 CNS and with HOP-62 NSCLC was over 100 µM throughout.

Consider `O=C(NCCCl)O/N=C/c1cccnc1`, for which the TGI in the experiment with HOP-92 NSCLC, in the experiment with SK-OV-3 ovarian, with NCI-H23 lung, in the experiment on SK-MEL-2 melanoma, with OVCAR-3 ovarian and with NCI-H226 lung was over 100 µM in each case. Besides, the TGI with SF-539 CNS and in the experiment on HOP-62 NSCLC was over 100 µM in each case.
